Read-outs that look alike come from different tables or passages of the source.

Experiment [1] addresses T1, HCV NS3/4A protease complex (UniProt P27958, C1454S/C1711G, species not given).
T1 construct: fused on or other part: Three-lysine solubilising tail at the C-terminus of NS4A
Nature of the experiment: Recombinant HCV NS3/4A protease complex FRET peptide assay (strain not stated). It is filed as biochemical.

Experiment [2] relates to HCV replicon in Huh7 cells. Nature of the experiment: HCV replicon cell-based assay. Details: species or system HCV strain 1B. The following applies: Hepatitis C virus, Huh-7, 96 h, HCV replicon, 4 days, read-out: EC50 range. From the text: HCV Replicon Cell-based Assay
An HCV replicon whole cell system was established as described by Lohmann V, Komer F, Koch J, Herian U, Theilmann L, Bartenschlager R., Science 285(5424):110–3 (1999). This system enabled us to evaluate the effects of our HCV Protease compounds on HCV RNA replication. Briefly, using the HCV strain 1B sequence described in the Lohmann paper (Assession number:AJ238799), an HCV cDNA was generated encoding the 5′ internal ribosome entry site (IRES), the neomycin resistance gene, the EMCV (encephalomyocarditis viurs)-IRES and the HCV nonstructural proteins, NS3-NS5B, and 3′ non-translated region (NTR). In vitro transcripts of the cDNA were transfected into the human hepatoma cell line, Huh7. […] Resulting cell lines were characterized for positive and negative strand RNA production and protein production over time.
Huh7 cells, constitutively expressing the HCV replicon, were grown in Dulbecco's Modified Eagle Media (DMEM) containing 10% Fetal calf serum (FCS) and 1 mg/ml G418 (Gibco-BRL). Cells were seeded the night before (1.5×10^4 cells/well) in 96-well tissue-culture sterile plates. Compound and no compound controls were prepared in DMEM containing 4% FCS, 1:100 Penicillin/Streptomysin, 1:100 L-glutamine and 5% DMSO in the dilution plate (0.5% DMSO final concentration in the assay). Compound/DMSO mixes were added to the cells and incubated for 4 days at 37° C. After 4 days, plates were rinsed thoroughly with Phosphate-Buffered Saline (PBS) (3 times 150 μl). The cells were lysed with 25 μl of a lysis assay reagent containing the FRET peptide (RET S1, as described for the in vitro enzyme assay). The lysis assay reagent was made from 5× cell Luciferase cell culture lysis reagent (Promega #E153A) diluted to 1× with distilled water, NaCl added to 150 mM final, the FRET peptide diluted to 10 μM final from a 2 mM stock in 100% DMSO. The plate was then placed into the Cytofluor 4000 instrument which had been set to 340 nm excitation/490 emission, automatic mode for 21 cycles and the plate read in a kinetic mode. EC50 determinations were carried out as described for the IC50 determinations.
As a secondary assay, EC50 determinations from the replicon FRET assay were confirmed in a quantitative RNA assay. Cells were lyzed using the Rneasy kit (Qiagen). Purified total RNA was normalized using RiboGreen (Jones L J, Yue S T, Cheung C Y, Singer V L, Anal. Chem., 265(2):368–74 (1998)) and relative quantitation of HCV RNA expression assessed using the Taqman procedure (Kolykhalov A A, Mihalik K, Feinstone S M, Rice C M, Journal of Virology 74, 2046–2051 (2000)) and the Platinum Quantitative RT-PCR Thermoscript One-Step kit (Invitrogen cat # 11731-015). Briefly, RNA made to a volume of 5 μl (<1 ng) was added to a 20 μl Ready-Mix containing the following: 1.25× Thermoscript reaction mix (containing Magnesium Sulfate and 2-deoxynucleoside 5′-triphosphates (dNTPs)), 3 mM dNTPs, 200 nM forward primer (sequence: 5′-[…]-3′), 600 nM reverse primer (5′-[…]-3′), 100 nM probe (5′-6-FAM-[…]-BHQ-1-3′)(FAM: Fluorescein-aminohexyl amidite; BHQ: Black Hole Quencher), 1 μM Rbx reference dye (Invitrogen cat # 12223-012) and Thermoscript Plus Platinum Taq polymerase mixture. All primers were designed with ABI Prism 7700 software and obtained from Biosearch Technologies, Novato, Calif. Samples containing known concentrations of HCV RNA transcript were run as standards. Using the following cycling protocol (50° C., 30 min; 95° C., 5 min; 40 cycles of 95° C., 15 sec, 60° C., 1 min), HCV RNA expression was quantitated as described in the Perkin Elmer manual using the ABI Prism 7700 Sequence Detector.
The luciferase reporter assay was also used to confirm compound potency in the replicon. Utilization of a replicon luciferase reporter assay was first described by Krieger et al (Krieger N, Lohmann V, and Bartenschlager R, J. Virol. 75(10):4614–4624 (2001)). […]

Setting [3] is: HCV NS3/4A protease enzyme assay, read-out: IC50 range.

For the compound `C=CC1C[C@]1(NC(=O)[C@@H]1C[C@@H](OC(=O)Nc2ccccc2C(=O)OCC)CN1C(=O)[C@@H](NC(=O)OC(C)(C)C)C(C)(C)C)C(=O)NS(=O)(=O)C1CC1` (stereo partly drawn) [Compound 19, BocNH-P3(t-BuGly)-P2(Hyp(O—CO(NH—(2-benzoic acid ethyl ester))))-P1(1R,2S VinylAcca)—CONHSO2Cyclopropane], the IC50 in experiment [1] (setting [3]) was less than 100 nM. The concentration giving a half-maximal response (EC50) in experiment [2] was less than 100 nM.

In the case of `C=CC1C[C@]1(NC(=O)[C@@H]1C[C@@H](OC(=O)Nc2cc(Cl)ccc2C)CN1C(=O)[C@@H](NC(=O)OC(C)(C)C)C(C)(C)C)C(=O)NS(=O)(=O)C1CC1` (stereo partly drawn) [Compound 20, BocNH-P3(t-BuGly)-P(Hyp(O—CO(NH—(5-chloro-2-methyl-phenyl))))-P1(1R,2S VinylAcca)—CONHSO2Cyclopropane], the IC50 in experiment [1] (setting [3]) was less than 100 nM. For the same compound, in experiment [2], the concentration for a half-maximal effect (EC50) lay within 1000 to 10000 nM.

Take `C=CC1C[C@]1(NC(=O)[C@@H]1C[C@@H](OC(=O)Nc2cc(C)ccc2F)CN1C(=O)[C@@H](NC(=O)OC(C)(C)C)C(C)(C)C)C(=O)NS(=O)(=O)C1CC1` (stereo partly drawn) [Compound 21, BocNH-P3(t-BuGly)-P2(Hyp(O—CO(NH—(2-fluoro-5-methyl-phenyl))))-P1(1R,2S VinylAcca)—CONHSO2Cyclopropane]: the IC50 in experiment [1] (setting [3]) was less than 100 nM. Further, the 50% effective concentration (EC50) in experiment [2] was in the range of 100 to 1000 nM.

`C=CC1C[C@]1(NC(=O)[C@@H]1C[C@@H](OC(=O)Nc2cc(Cl)cc(Cl)c2)CN1C(=O)[C@@H](NC(=O)OC(C)(C)C)C(C)(C)C)C(=O)NS(=O)(=O)C1CC1` (stereo partly drawn) [Compound 23, BocNH-P3(t-BuGly)-P2(Hyp(O—CO(NH—(3,5-dichloro-phenyl))))-P1(1R,2S VinylAcca)—CONHSO2Cyclopropane]: in experiment [1] (read-out: IC50 range, HCV NS3/4A protease enzyme assay), the IC50 is less than 100 nM. For the same compound, in experiment [2], the EC50 fell in the range of 100 to 1000 nM.

With `C=CC1C[C@]1(NC(=O)[C@@H]1C[C@@H](OC(=O)NCc2cccc(F)c2)CN1C(=O)[C@@H](NC(=O)OC(C)(C)C)C(C)(C)C)C(=O)NS(=O)(=O)C1CC1` (stereo partly drawn) [Compound 24, BocNH-P3(t-BuGly)-P2(Hyp(O—CO(NH—(3-fluoro-benzyl))))-P1(1R,2S VinylAcca)—CONHSO2Cyclopropane], in experiment [1] (setting [3]), the IC50 lay in the range of 100 to 1000 nM. In experiment [2], the concentration giving a half-maximal response (EC50) is more than 10000 nM.

For the compound `C=CC1C[C@]1(NC(=O)[C@@H]1C[C@@H](OC(=O)Nc2cccc(CC)c2)CN1C(=O)[C@@H](NC(=O)OC(C)(C)C)C(C)(C)C)C(=O)NS(=O)(=O)C1CC1` (stereo partly drawn) [Compound 25, BocNH-P3(t-BuGly)-P2(Hyp(O—CO(NH—(3-ethyl-phenyl))))-P1(1R,2S VinylAcca)—CONHSO2Cyclopropane], the IC50 in experiment [1] (setting [3]) was less than 100 nM. Further, in experiment [2], the EC50 was 1000 to 10000 nM.

Turning to `C=CC1C[C@]1(NC(=O)[C@@H]1C[C@@H](OC(=O)NCc2ccccc2Cl)CN1C(=O)[C@@H](NC(=O)OC(C)(C)C)C(C)(C)C)C(=O)NS(=O)(=O)C1CC1` (stereo partly drawn) [Compound 26, BocNH-P3(t-BuGly)-P2(Hyp(O—CO(NH—(2-chloro-benzyl))))-P1(1R,2S VinylAcca)—CONHSO2Cyclopropane], the IC50 in experiment [1] (setting [3]) was less than 100 nM. Besides, in experiment [2], the concentration giving a half-maximal response (EC50) lay in the range of 1000 to 10000 nM.

For the compound `C=CC1C[C@]1(NC(=O)[C@@H]1C[C@@H](OC(=O)Nc2cccc(OC)c2)CN1C(=O)[C@@H](NC(=O)OC(C)(C)C)C(C)(C)C)C(=O)NS(=O)(=O)C1CC1` (stereo partly drawn) [Compound 27, BocNH-P3(t-BuGly)-P2(Hyp(O—CO(NH—(3-methoxy-phenyl))))-P1(1R,2S VinylAcca)—CONHSO2Cyclopropane], the IC50 in experiment [1] (setting [3]) was less than 100 nM. Besides, the EC50 in experiment [2] lay within 1000 to 10000 nM.

With `C=CC1C[C@]1(NC(=O)[C@@H]1C[C@@H](OC(=O)Nc2cccc(C(=O)OCC)c2)CN1C(=O)[C@@H](NC(=O)OC(C)(C)C)C(C)(C)C)C(=O)NS(=O)(=O)C1CC1` (stereo partly drawn) [Compound 28, BocNH-P3(t-BuGly)-P2(Hyp(O—CO(NH—(3-benzoic acid ethyl ester))))-P1(1R,2S VinylAcca)—CONHSO2Cyclopropane], in experiment [1] (setting [3]), the IC50 lay in the range of 100 to 1000 nM. Further, the concentration for a half-maximal effect (EC50) in experiment [2] is 1000 to 10000 nM.

Turning to `C=CC1C[C@]1(NC(=O)[C@@H]1C[C@@H](OC(=O)Nc2ccccc2SC)CN1C(=O)[C@@H](NC(=O)OC(C)(C)C)C(C)(C)C)C(=O)NS(=O)(=O)C1CC1` (stereo partly drawn) [Compound 29, BocNH-P3(t-BuGly)-P2(Hyp(O—CO(NH—(2-methylsulfanyl-phenyl))))-P1(1R,2S VinylAcca)—CONHSO2Cyclopropane], the IC50 in experiment [1] (setting [3]) was less than 100 nM. Also, the concentration giving a half-maximal response (EC50) in experiment [2] is 100 to 1000 nM.

Regarding `C=CC1C[C@]1(NC(=O)[C@@H]1C[C@@H](OC(=O)Nc2ccccc2C(=O)OC)CN1C(=O)[C@@H](NC(=O)OC(C)(C)C)C(C)(C)C)C(=O)NS(=O)(=O)C1CC1` (stereo partly drawn) [Compound 30, BocNH-P3(t-BuGly)-P2(Hyp(O—CO(NH—(2-benzoic acid methyl ester))))-P1(1R,2S VinylAcca)—CONHSO2Cyclopropane], the IC50 in experiment [1] (setting [3]) was less than 100 nM. The concentration giving a half-maximal response (EC50) in experiment [2] was less than 100 nM.

Take `C=CC1C[C@]1(NC(=O)[C@@H]1C[C@@H](OC(=O)Nc2cccc(Cl)c2Cl)CN1C(=O)[C@@H](NC(=O)OC(C)(C)C)C(C)(C)C)C(=O)NS(=O)(=O)C1CC1` (stereo partly drawn) [Compound 31, BocNH-P3(t-BuGly)-P2(Hyp(O—CO(NH—(2,3-dichloro-phenyl))))-P1(1R,2S VinylAcca)—CONHSO2Cyclopropane]: the IC50 in experiment [1] (setting [3]) was less than 100 nM. Besides, in experiment [2], the EC50 is 100 to 1000 nM.

Take `C=CC1C[C@]1(NC(=O)[C@@H]1C[C@@H](OC(=O)n2c3ccccc3c3ccccc32)CN1C(=O)[C@@H](NC(=O)OC(C)(C)C)C(C)(C)C)C(=O)NS(=O)(=O)C1CC1` (stereo partly drawn) [Compound 32, BocNH-P3(t-BuGly)-P2(Hyp(O—CO(N-(9-carbazolyl))))-P1(1R,2S VinylAcca)—CONHSO2Cyclopropane]: in experiment [1] (setting [3]), the IC50 was less than 100 nM. Further, the 50% effective concentration (EC50) in experiment [2] was less than 100 nM.

For `C=CC1C[C@]1(NC(=O)[C@@H]1C[C@@H](OC(=O)Nc2ccccc2Br)CN1C(=O)[C@@H](NC(=O)OC(C)(C)C)C(C)(C)C)C(=O)NS(=O)(=O)C1CC1` (stereo partly drawn) [Compound 33, BocNH-P3(t-BuGly)-P2(Hyp(O—CO(NH—(2-bromo-phenyl))))-P1(1R,2S VinylAcca)—CONHSO2Cyclopropane], the IC50 in experiment [1] (setting [3]) was in the range of 100 to 1000 nM. Further, the EC50 in experiment [2] lay within 100 to 1000 nM.

Take `C=CC1C[C@]1(NC(=O)[C@@H]1C[C@@H](OC(=O)Nc2cccc(C(F)(F)F)c2)CN1C(=O)[C@@H](NC(=O)OC(C)(C)C)C(C)(C)C)C(=O)NS(=O)(=O)C1CC1` (stereo partly drawn) [Compound 34, BocNH-P3(t-BuGly)-P2(Hyp(O—CO(NH—(3-trifluoromethyl-phenyl))))-P1(1R,2S VinylAcca)—CONHSO2Cyclopropane]: in experiment [1] (setting [3]), the IC50 lay in the range of 100 to 1000 nM. Further, the EC50 in experiment [2] was in the range of 1000 to 10000 nM.

Take `C=CC1C[C@]1(NC(=O)[C@@H]1C[C@@H](OC(=O)Nc2nc(Cl)c(Cl)nc2C(=O)OC)CN1C(=O)[C@@H](NC(=O)OC(C)(C)C)C(C)(C)C)C(=O)NS(=O)(=O)C1CC1` (stereo partly drawn) [Compound 35, BocNH-P3(t-BuGly)-P2(Hyp(O—CO(NH-3-(5,6-Dichloro-pyrazine-2-carboxylic acid methyl ester))))-P1(1R,2S VinylAcca)—CONHSO2Cyclopropane]: in experiment [1] (setting [3]), the IC50 is less than 100 nM. The EC50 in experiment [2] is more than 10000 nM.

Consider `C=CC1C[C@]1(NC(=O)[C@@H]1C[C@@H](OC(=O)N2CCc3ccccc32)CN1C(=O)[C@@H](NC(=O)OC(C)(C)C)C(C)(C)C)C(=O)NS(=O)(=O)C1CC1` (stereo partly drawn) [Compound 36, BocNH-P3(t-BuGly)-P2(Hyp(O—CO(N-(1-indolinyl))))-P1(1R,2S VinylAcca)—CONHSO2Cyclopropane], for which the IC50 in experiment [1] (setting [3]) was less than 100 nM. Besides, the 50% effective concentration (EC50) in experiment [2] was in the range of 100 to 1000 nM.

As a reminder, the EC50 is the concentration needed to bring the measured effect to its halfway point.

The values above are taken from patent US7041698B2, “Hepatitis C virus inhibitors” (Bristol-Myers Squibb Company, priority 2002, dated 2006).
